What all share (format): physicochemical
Series [1] is described as follows: Compound was evaluated for pKa by titration of the compounds in 1:2 methyl alcohol and water. The conditions noted are these: read-out: pKa app.
Series [2] in a line: Partition coefficient (logP). Conditions: octanol/water.
The nature of series [3]: Compound was evaluated for distribution coefficient. The conditions noted are these: octanol/water.
Series [4] can be described thus: Compound was evaluated for pKa by titration of the compounds in 1:2 methyl alcohol and water. The conditions noted are these: read-out: pKa app.

Data on two molecules can be found in ChEMBL document CHEMBL1123372, “6,7-Dichloro-1-(3,4,5-trimethoxybenzyl)-1,2,3,4-tetrahydroisoquinoline . A structurally novel beta-adrenergic receptor blocking agent” (J Med Chem, 1986).

The term pKa denotes the negative logarithm of the acid dissociation constant. Broadly, the logP is a log measure of how a compound divides between an organic and an aqueous phase. Low readings indicate a more hydrophilic compound, high ones a more lipophilic compound. What is called logD is the decadic logarithm of the distribution of all forms, ionised or not, between an organic phase and buffer at a given pH. A high value points to a more lipophilic compound.

With `CC(C)NCC(O)c1ccc(Cl)c(Cl)c1` (stereo unspecified) [DICHLOROISOPROTERENOL], in series [1], the pKa came out at 8.7. The molecule further returned a logP in series [2] of 2.55. The log distribution coefficient (logD) in series [3] was found to be 1.26.
For the molecule `COc1cc(C[C@@H]2NCCc3cc(O)c(O)cc32)cc(OC)c1OC` [TRETOQUINOL], the pKa in series [4] was determined as 7.6. In addition, the logP in series [2] turned out to be 2.23. In series [3], this molecule yielded a logD of 1.79.
